Experimental findings from patent US5780008A, “Polyhdric phenol compounds” (Mallinckrodt Medical, Inc., priority 1997, dated 1998) are described below.

Where only a bound is given, the exact number is not on record here.

The test system of series [1] is YAK1 mice lymphoma cells. The experiment in a line: binding of 3-125I-phloretin to YAK1 lymphoma cancer cells. As for the experimental part:
(§1) In order to be able to compare the binding to cancer cells with the binding to normal cells, the following experiments are carried out. Binding to certain cancer cells, viz. YAK1 mice lymphoma cells (10^6 cells/ml incubation medium) is compared with binding to erythrocytes of a young healthy person (10^6 cells/ml incubation medium), because erythocytes are typical reference cells for glucose transport studies.
(§2) The incubation media are respectively:
(§3) RPMI buffer pH=8; 11 mM in glucose, and
(§4) RPMI buffer/0.9% NaCl : 1/1.
(§5) Each 1 ml essay contains 5% of foetal calf serum and is spiked (50 μl) with 3-^125 I-phloretin (initial activity is measured). After 15 min incubation at 37° C., the suspension is centrifuged and the precipitate is resuspended with 1 ml cold buffer which is discarded after a second centrifugation. The final radioactive precipitate is suspended in 1 ml water and measured. The bound radioactivity is related to the initial activity.

For series [2], the system named is erythrocytes. Put plainly: binding of 3-125I-phloretin to erythrocytes. Set-up: species or system human. The method, then:
as §1, §2, §3, §4, §5
Saturation binding of 3-^125 I-phloretin to 5.10^6 erythrocytes is performed in RPMI-buffer and Tris-buffer of pH 8. The binding experiments are performed at pH 8, because this is the pH of the RPMI buffer needed for optimum YAK1 cells growth. Incubation for 15 min at 37° C. Inhibition is studied by pre-incubation (15 min, 37° C.) of the erythrocytes in buffer containing 2.10^-4 M 3-Br-phloretin. After centrifugation, the Br-phloretin--containing solution is discarded and the precipitate washed with ice-cooled buffer. After a second centrifugation, the supernatant is discarded and the cells are resuspended in buffer containing 3-^125 I-phloretin. After incubation for 15 min at 37° C., the same above procedure is applied.
Phloretin is a weak acid (pK is approx. 7.3); only the uncharged (non-dissociated) form inhibits red cell glucose transport (Jennings et al., see above). Therefore the values mentioned hereinafter are corrected for dissociation.

In series [3] the test system is hexokinase. Put plainly: hexokinase-model: inhibition of hexokinase catalysed 6-phosphorilation of glucose. The format is biochemical. The source says: The "hexokinase-model" is used as a model system for the glucose-transport proteins, which play a paramount role in the glucose metabolism.
The nature of series [4]: binding in human whole blood (RB/plasma distribution, reversibility). In kind it is in vitro ADME. The method, then: Jennings et al. [J. Gen. Phys., […], 67, 381]have reported the binding of phloretin to whole red blood cells. Their results let to assume that phloretin should enter the erythrocytes and bind to haemoglobine. This should mean that a phloretin-based radiotracer should not be suitable for in vivo use. Therefore the reversibility of the binding is checked. For this purpose 3-^125 I-phloretin is added to whole heparinised blood. This is centrifuged, yielding serum S-*I and red blood portion RB-*I. S-*I and non-radioactive RB (1/1) and respectively non-radioactive S and RB-*I (1/1) are incubated at 37° C. for 15 min and centrifuged. The radioactivity of all the weighed aliquots is measured in a well NaI(Tl) detector.

Series [5] can be described thus: in vivo distribution studies in rats. The method, then:
The in vivo distribution in rats is determined by injecting approx. 10μCi of the compound to be evaluated into the tail vein of the test animals. The test animals are sacrificed at appropriate time intervals after injection and the radioactivity of the organs of interest is measured by gamma scintillation counting.

Turning to `O=C(CCc1ccc(O)c(Br)c1)c1c(O)cc(O)cc1O` [3-Br-phloretin, 3-bromophloretin], the “decreased binding of 3-125I-phloretin to YAK1 cells” value in series [1] (co-incubation of 3-Br-phloretin, 15 min) is given as 30%. The “bound/free value of 3-125I-phloretin after pre-incubation with inhibitor” value in series [2] (pre-incubation with 2×10^-4 M, 15 min 37° C., blank 0.193, average of 5 experiments) is 0.081. The “inhibition of 3-125I-phloretin binding to erythrocytes” value in series [2] (pre-incubation with 2×10^-4 M, compared with blank) amounted to 58%.

As to `O=C(CCc1ccc(O)c(I)c1)c1c(O)cc(O)cc1O` [3-I-phloretin], the “inhibition potency for hexokinase relative to the original phloretin” value in series [3] (versus phloretin) is “approx. 2 times”.

Consider `O=C(CCc1ccc(O)c([125I])c1)c1c(O)cc(O)cc1O` [3-^125 I-phloretin], for which, in series [4], the “nature of binding to plasma-proteins and RB” value is “bound reversibly”. Further, in series [1] (YAK1 cells versus erythrocytes), the “increase of uptake to YAK1 lymphoma cancer cells as compared to erythrocytes” value is recorded as over 2 factor. Further, in series [5] (C.A. versus N.C.A.), the “uptake in the heart and muscle in the presence of Br-phloretin (C.A.)” value is on record as “decreased uptake”. Also, the “uptake in the lungs (lung versus blood)” value in series [5] (approx. 10μCi into the tail vein) is “high uptake”. For the same compound, in series [2] (at equilibrium), the “high affinity binding in the presence of serum albumine” value is “remains unchanged”. Further, the “influence of glucose on binding” value in series [2] (presence of 3.10^-3 -5.10^-3 M glucose) was “hardly influences”. The Bmax in series [2] (saturation binding 0.1 to 1.2 10^-10 M, Scatchard plot, pH 8) is 4.7×10^-15 mol/10^6 erythrocytes.

Turning to `O=C(CCc1ccc(O)cc1)c1c(O)cc(O)cc1O` [phloretin, reference compound], the “type of inhibition of hexokinase activity” value in series [3] (from Lineweaver-Burck plots, with respect to glucose) is given as “competitive”.
